From patent publication US8999375B2, “Compositions including pyruvate for companion animals and methods of use thereof” (Hill's Pet Nutrition, Inc., priority 2009, dated 2015)

Test system: arthritic and normal cats
Assay: Feline arthritis biomarker measurements in arthritic and normal cats
Type: in vivo
Settings: 1% by weight in diet, 28 days
Experimental: Calcium pyruvate was tested in arthritic and normal cats to determine efficacy in reducing cartilage damage and inflammatory markers. Ten normal and ten arthritis cats were fed the feline control diet enhanced with 1% by weight calcium pyruvate for 28 days. Analysis was performed on natural log transformed values. Means and SED are antilog values of log transformed data.

calcium pyruvate
concentration of serum HMGB1 (in words): reduced
concentration of serum IL-1 beta (in words): reduced
marker of bone formation, BAP (in words): improved
